Reference: the NIST ThermoML archive (doi:10.1021/acs.jced.7b00257)
± gives the expanded uncertainty stated by the source.

Assay: mn = molality of the nth substance listed, in mol/kg
Conditions: 100 kPa, Liquid; for speed of sound: Frequency=3 MHz, Sing-around technique in a fixed-path interferometer; for mass density: Vibrating tube method

## N.O=P(O)(O)O [ammonium dihydrogen phosphate] + O
288.15 K, m1 = 0.5
  speed of sound: 1507.2 ± 1.2 m/s
  mass density: 1029.89 ± 0.11 kg/m3
288.15 K, m1 = 1
  speed of sound: 1544.3 ± 1.3 m/s
  mass density: 1057.21 ± 0.12 kg/m3
288.15 K, m1 = 1.5
  speed of sound: 1579.5 ± 1.3 m/s
  mass density: 1082.49 ± 0.12 kg/m3
288.15 K, m1 = 2
  speed of sound: 1613.6 ± 1.3 m/s
  mass density: 1105.65 ± 0.13 kg/m3
298.15 K, m1 = 0.5
  speed of sound: 1534.7 ± 1.2 m/s
  mass density: 1026.93 ± 0.11 kg/m3
298.15 K, m1 = 1
  speed of sound: 1569.5 ± 1.3 m/s
  mass density: 1054.11 ± 0.12 kg/m3
298.15 K, m1 = 1.5
  speed of sound: 1602.2 ± 1.3 m/s
  mass density: 1079.39 ± 0.12 kg/m3
298.15 K, m1 = 2
  speed of sound: 1634.1 ± 1.3 m/s
  mass density: 1102.5 ± 0.13 kg/m3
308.15 K, m1 = 0.5
  speed of sound: 1555.7 ± 1.2 m/s
  mass density: 1023.68 ± 0.11 kg/m3
308.15 K, m1 = 1
  speed of sound: 1588.6 ± 1.2 m/s
  mass density: 1050.64 ± 0.12 kg/m3
308.15 K, m1 = 1.5
  speed of sound: 1619.5 ± 1.3 m/s
  mass density: 1075.63 ± 0.12 kg/m3
308.15 K, m1 = 2
  speed of sound: 1649.6 ± 1.3 m/s
  mass density: 1098.68 ± 0.13 kg/m3
318.15 K, m1 = 0.5
  speed of sound: 1570.8 ± 1.2 m/s
  mass density: 1019.89 ± 0.11 kg/m3
318.15 K, m1 = 1
  speed of sound: 1602.3 ± 1.2 m/s
  mass density: 1046.76 ± 0.12 kg/m3
318.15 K, m1 = 1.5
  speed of sound: 1631.7 ± 1.3 m/s
  mass density: 1071.69 ± 0.12 kg/m3
318.15 K, m1 = 2
  speed of sound: 1660.4 ± 1.3 m/s
  mass density: 1094.7 ± 0.13 kg/m3
